The record followed here is patent US11440905B2, “Biheterocyclic compound” (SUMITOMO PHARMA CO., LTD., priority 2016, dated 2022).

Where a name gives a salt, the structure may show the parent alone.

The target in the first assay is T1, mouse Sema3A binding to CHO cells stably-expressing mouse neuropilin (Mus musculus, UniProt O08665).
T1 construct: host or cells: CHO cells stably expressing the neuropilin partner
T1 sequence (O08665 21-772): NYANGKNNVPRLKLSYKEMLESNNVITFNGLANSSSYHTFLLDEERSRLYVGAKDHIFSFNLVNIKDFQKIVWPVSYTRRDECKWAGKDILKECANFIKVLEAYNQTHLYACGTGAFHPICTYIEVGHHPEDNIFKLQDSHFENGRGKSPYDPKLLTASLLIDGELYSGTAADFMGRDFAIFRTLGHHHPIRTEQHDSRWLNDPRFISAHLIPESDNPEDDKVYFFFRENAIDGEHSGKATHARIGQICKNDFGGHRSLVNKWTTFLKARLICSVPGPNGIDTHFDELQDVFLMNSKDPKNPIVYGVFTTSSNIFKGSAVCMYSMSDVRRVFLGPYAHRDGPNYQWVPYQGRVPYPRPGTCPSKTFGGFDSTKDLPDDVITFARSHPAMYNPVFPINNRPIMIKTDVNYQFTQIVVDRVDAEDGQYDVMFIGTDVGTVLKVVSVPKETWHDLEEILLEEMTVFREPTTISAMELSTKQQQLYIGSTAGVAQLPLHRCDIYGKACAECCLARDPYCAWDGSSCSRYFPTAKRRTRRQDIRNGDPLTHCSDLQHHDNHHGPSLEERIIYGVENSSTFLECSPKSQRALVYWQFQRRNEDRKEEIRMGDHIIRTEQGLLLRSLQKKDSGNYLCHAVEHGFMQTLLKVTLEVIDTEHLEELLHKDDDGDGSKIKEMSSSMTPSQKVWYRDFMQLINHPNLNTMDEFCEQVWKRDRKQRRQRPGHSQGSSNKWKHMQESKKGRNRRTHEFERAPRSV
Kind of assay: Inhibitory activity for the neuropilin-binding activity caused by Sema3A (Test 2). To be noted: 1 h, 10 μM test compound (footnote *), AP-Sema3A, read-out: residual ratio (%) of avidity (Sema3A-neuropilin binding). The procedure: (Test 2) Inhibitory Activity for the Neuropilin-Binding Activity Caused by Sema3A
To each well of 96 well-plate (IWAKI) was seeded CHO cells stably-expressing mouse neuropilin, the cells were cultivated in F12 medium (10% fetal bovine serum, 100 units/mL penicillin, and 100 μg/mL streptomycin) under the condition of 5% CO2 and 37° C. for 18 hours. And then, the culture medium was removed, and mouse Sema3A which included each test compound and alkaline phosphatase (AP) in various concentrations was added thereto, and the culture was reacted at room temperature for more one hour. Then, the reaction solution was removed, the residual cells were washed with HBSS solution (0.25% BSA) and dissolved in a solution (10 mM Tris including 1% Triton X-100) at 65° C. for one hour, and the AP activity thereof was measured.
For `Cn1ccnc1COC(=O)c1c(O)c(O)cc2occ(-c3cn(C)c4cc(O)c(O)cc4c3=O)c(=O)c12` [Example 26, (1-Methyl-1H-imidazol-2-yl)methyl 3-(6,7-dihydroxy-1-methyl-4-oxo-1,4-dihydroquinolin-3-yl)-6,7-dihydroxy-4-oxo-4H-chromene-5-carboxylate hydrochloride], the remaining activity at 10 µM was determined as 97.8%.

Staying with this assay, now noted: 1 h, 100 μM test compound, AP-Sema3A, smaller value = more potent binding inhibition, read-out: residual ratio (%) of avidity (Sema3A-neuropilin binding).
As for `Cn1cc(-c2coc3cc(O)c(O)c(C(=O)OCCOCCC(=O)O)c3c2=O)c(=O)c2cc(O)c(O)cc21` [Example 20, 3-[2-({[3-(6,7-Dihydroxy-1-methyl-4-oxo-1,4-dihydroquinolin-3-yl)-6,7-dihydroxy-4-oxo-4H-chromen-5-yl]carbonyl}oxy)ethoxy]propanoic acid], the remaining activity at 100 µM was found to be 56.5%. Consider `Cn1cc(-c2coc3cc(O)c(O)c(C(=O)OCCOCCC(=O)N[C@@H](CCC(=O)O)C(=O)O)c3c2=O)c(=O)c2cc(O)c(O)cc21` [Example 21, N-{3-[2-({[3-(6,7-Dihydroxy-1-methyl-4-oxo-1,4-dihydroquinolin-3-yl)-6,7-dihydroxy-4-oxo-4H-chromen-5-yl]carbonyl}oxy)ethoxy]propanoyl}-L-glutamic acid], for which the remaining activity at 100 µM stood at 58.5%. The same measure, in the same setting: in the case of `Cn1cc(-c2coc3cc(O)c(O)c(C(=O)OCCN(CC(=O)O)CC(=O)O)c3c2=O)c(=O)c2cc(O)c(O)cc21` [Example 22, 2,2′-{[2-({[3-(6,7-Dihydroxy-1-methyl-4-oxo-1,4-dihydroquinolin-3-yl)-6,7-dihydroxy-4-oxo-4H-chromen-5-yl]carbonyl}oxy)ethyl]imino}-di-acetic acid] it was 62.1%; in that of `CN1CCN(C)C(COC(=O)c2c(O)c(O)cc3occ(-c4cn(C)c5cc(O)c(O)cc5c4=O)c(=O)c23)C1` (centres unmarked) [Example 25, (1,4-Dimethylpiperazin-2-yl)methyl 3-(6,7-dihydroxy-1-methyl-4-oxo-1,4-dihydroquinolin-3-yl)-6,7-dihydroxy-4-oxo-4H-chromene-5-carboxylate hydrochloride], 90.5%; in that of `Cn1cc(-c2coc3cc(O)c(O)c(C(=O)OCCN4CCC(O)C4)c3c2=O)c(=O)c2cc(O)c(O)cc21` (centres unmarked) [Example 28, 2-(3-Hydroxypyrrolidin-1-yl)ethyl 3-(6,7-dihydroxy-1-methyl-4-oxo-1,4-dihydroquinolin-3-yl)-6,7-dihydroxy-4-oxo-4H-chromene-5-carboxylate], 87.1%.

Turning to `Cn1cc(-c2coc3cc(O)c(O)c(C(=O)OCCOCCOCCOCCOCCO)c3c2=O)c(=O)c2cc(O)c(O)cc21` [Example 29, 14-Hydroxy-3,6,9,12-tetraoxatetradec-1-yl 3-(6,7-dihydroxy-1-methyl-4-oxo-1,4-dihydroquinolin-3-yl)-6,7-dihydroxy-4-oxo-4H-chromene-5-carboxylate], the remaining activity at 100 µM was 49.3%. As to `COC(=O)CCOCCOC(=O)c1c(O)c(O)cc2occ(-c3cn(C)c4cc(O)c(O)cc4c3=O)c(=O)c12` [Example 31, 2-(3-Methoxy-3-oxopropoxy)ethyl 3-(6,7-dihydroxy-1-methyl-4-oxo-1,4-dihydroquinolin-3-yl)-6,7-dihydroxy-4-oxo-4H-chromene-5-carboxylate], the remaining activity at 100 µM is 69.4%.
